Assay: plasma concentration of itraconazole required for clinical benefit in humans with cancer
Format: in vivo
Conditions: human, after 4 weeks of therapy, read-out: minimum plasma trough level required to have a clinically significant effect
Description: Optionally, the treatment method further comprises measuring the plasma level of the HhP inhibitor, or a metabolite thereof, in the subject one or more times. In some embodiments, the measuring is carried out one or more times about 4 weeks after initiation of treatment with the HhP inhibitor. Observations concerning the desirability of achieving a plasma trough level of at least about 1,000 ng/mL of the HhP inhibitor are described in U.S. Pat. No. 9,192,609 (“Treatment and Prognostic Monitoring of Proliferation Disorders Using Hedgehog Pathway Inhibitors”; Virca and O'Donnell), which is incorporated herein by reference in its entirety.
In particular, the minimum plasma trough level after 4 weeks of therapy required to have a clinically significant effect was at least 1000 ng/ml. […] Nevertheless, there can be side-effects peculiar to such high doses such as hypertension, peripheral edema, and hypokalemia, which seem to be a result of an increased production of mineralocorticoid. These side effects associated with these high doses of itraconazole can be effectively managed by giving a selective mineralocorticoid antagonist, such as eplerenone. Accordingly, in some embodiments, the method further comprises administering eplerenone or other mineralocorticoid inhibitor. […]

## CCC(C)n1ncn(-c2ccc(N3CCN(c4ccc(OCC5COC(Cn6cncn6)(c6ccc(Cl)cc6Cl)O5)cc4)CC3)cc2)c1=O (stereo not shown) [itraconazole]
  concentration at 4 weeks: ≥ 1000 ng/mL
